Source: the NIST ThermoML archive (doi:10.1016/j.tca.2018.05.015)
± gives the expanded uncertainty stated by the source.

Details: for mass density: 101.33 kPa, X-ray diffraction; for Triple point temperature: DSC

## CC(C)(C#N)N=NC(C)(C)C#N [2,2'-dimethyl-2,2'-azodipropionitrile]
346.15 K, Crystal 2
  mass density: 1100 ± 22 kg/m3
356.15 K, Crystal 1
  mass density: 1096 ± 22 kg/m3
Crystal 1
  Triple point temperature: 373.15 ± 5 K
Crystal 2
  Triple point temperature: 351.15 ± 5 K
